Data reported in patent US6737383B1, “Herbicidal oxadiazolidines” (priority 1999, dated 2004).

What was measured:
corn = assay: Test B pre/postemergence corn; assay type: in vivo, Zea mays
Procedure, shortened: (§1)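 Test chemicals in a non-phytotoxic solvent mixture with surfactant were sprayed preemergence onto planted seeds and postemergence onto plants 2 to 18 cm tall (1- to 4-leaf stage). After twelve to sixteen days in a greenhouse, injury was visually rated against untreated controls from 0 (no effect) to 10 (complete control).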

crabgrass = assay: Test B pre/postemergence crabgrass; assay type: in vivo, Digitaria sanguinalis
Procedure, shortened: as §1

cocklebur = assay: Test B pre/postemergence cocklebur; assay type: in vivo, Xanthium strumarium
Procedure, shortened: as §1

wheat = assay: Test B pre/postemergence wheat; assay type: in vivo, Triticum aestivum
Procedure, shortened: as §1

rape = assay: Test B pre/postemergence rape; assay type: in vivo, Brassica napus
Procedure, shortened: as §1

wild oat = assay: Test B pre/postemergence wild oat; assay type: in vivo, Avena fatua
Procedure, shortened: as §1

pigweed = assay: Test B pre/postemergence pigweed; assay type: in vivo, Amaranthus retroflexus
Procedure, shortened: as §1

sugar beet = assay: Test B pre/postemergence sugar beet; assay type: in vivo, Beta vulgaris
Procedure, shortened: as §1

morningglory = assay: Test B pre/postemergence morningglory; assay type: in vivo, Ipomoea hederacea
Procedure, shortened: as §1

bedstraw = assay: Test B pre/postemergence bedstraw; assay type: in vivo, Galium aparine
Procedure, shortened: as §1

purple nutsedge = assay: Test B pre/postemergence purple nutsedge; assay type: in vivo, Cyperus rotundus
Procedure, shortened: as §1

soybean = assay: Test B pre/postemergence soybean; assay type: in vivo, Glycine max
Procedure, shortened: as §1

blackgrass = assay: Test B pre/postemergence blackgrass; assay type: in vivo, Alopecurus myosuroides
Procedure, shortened: as §1

giant foxtail = assay: Test B pre/postemergence giant foxtail; assay type: in vivo, Setaria faberii
Procedure, shortened: as §1

surinam grass = assay: Test B pre/postemergence surinam grass; assay type: in vivo, Brachiaria decumbens
Procedure, shortened: as §1

velvetleaf = assay: Test B pre/postemergence velvetleaf; assay type: in vivo, Abutilon theophrasti
Procedure, shortened: as §1

[1] = Postemergence, Rate 62 g/ha, scale of 0 to 10, 0 is no effect, 10 is complete control
[2] = Postemergence, Rate 125 g/ha, scale 0 to 10, 0 is no effect, 10 is complete control
[3] = Postemergence, Rate 500 g/ha, scale 0 to 10, 0 is no effect, 10 is complete control
[4] = Preemergence, Rate 62 g/ha, scale 0 to 10 (0 no effect, 10 complete control)
[5] = Preemergence, Rate 125 g/ha, scale 0 to 10, 0 is no effect, 10 is complete control
[6] = Preemergence, Rate 500 g/ha, scale of 0 to 10 where 0 is no effect and 10 is complete control
[7] = Rate 250 g/ha, Postemergence, scale of 0 to 10 where 0 is no effect and 10 is complete control

COC(=O)CCCn1c(=O)on(C(=O)N(c2ccc(Cl)cc2)C(C)C)c1=O [Compound 543]
2: Plant response rating, Sugarbeets (sugar beet; [7]) | Morningglory plant response rating (morningglory; [2]) | Plant response rating, Bedstraw (bedstraw; [3]) | Soybean plant response rating (soybean; [2]) | Plant response rating, Soybean (soybean; [3]) | Soybean plant response rating (0 to 10 scale) (soybean; Preemergence, Rate 250 g/ha) | Soybean plant response rating (soybean; [6]) | Plant response rating, Soybean (soybean; [7]) | Plant response rating, Blackgrass (blackgrass; [3]) | Blackgrass plant response rating (blackgrass; [6])
10: Cocklebur plant response rating (cocklebur; [6])
0: Corn plant response rating (corn; [1]) | Corn plant response rating (corn; [2]) | Plant response rating, Corn (corn; [3]) | Corn plant response rating (corn; [4]) | Corn plant response rating (corn; [5]) | Corn plant response rating (0 to 10 scale) (corn; Preemergence, Rate 250 g/ha) | Corn plant response rating (corn; [6]) | Plant response rating, Corn (corn; [7]) | Crabgrass plant response rating (crabgrass; [1]) | Cocklebur plant response rating (cocklebur; [1]) | Cocklebur plant response rating (cocklebur; [2]) | Cocklebur plant response rating (cocklebur; [5]) | Cocklebur plant response rating (0 to 10 scale) (cocklebur; Preemergence, Rate 250 g/ha) | Plant response rating, Cocklebur (cocklebur; [7]) | Wheat plant response rating (wheat; [1]) | Wheat plant response rating (wheat; [2]) | Plant response rating, Wheat (wheat; [3]) | Wheat plant response rating (wheat; [4]) | Wheat plant response rating (wheat; [5]) | Wheat plant response rating (0 to 10 scale) (wheat; Preemergence, Rate 250 g/ha) | Wheat plant response rating (wheat; [6]) | Plant response rating, Wheat (wheat; [7]) | Rape plant response rating (rape; [1]) | Rape plant response rating (rape; [2]) | Plant response rating, Rape (rape; [3]) | Rape plant response rating (rape; [4]) | Rape plant response rating (rape; [5]) | Rape plant response rating (0 to 10 scale) (rape; Preemergence, Rate 250 g/ha) | Rape plant response rating (rape; [6]) | Plant response rating, Rape (rape; [7]) | Wild oats plant response rating (wild oat; [1]) | Wild oats plant response rating (wild oat; [2]) | Wild oats plant response rating (wild oat; [4]) | Wild oats plant response rating (wild oat; [5]) | Wild oats plant response rating (0 to 10 scale) (wild oat; Preemergence, Rate 250 g/ha) | Wild oats plant response rating (wild oat; [6]) | Plant response rating, Wild oats (wild oat; [7]) | Redroot pigweed plant response rating (pigweed; [1]) | Redroot pigweed plant response rating (pigweed; [2]) | Plant response rating, Redroot pigweed (pigweed; [3]) | Plant response rating, Redroot pigweed (pigweed; [7]) | Sugarbeets plant response rating (sugar beet; [1]) | Sugarbeets plant response rating (sugar beet; [2]) | Morningglory plant response rating (morningglory; [4]) | Morningglory plant response rating (morningglory; [5]) | Morningglory plant response rating (0 to 10 scale) (morningglory; Preemergence, Rate 250 g/ha) | Morningglory plant response rating (morningglory; [6]) | Bedstraw plant response rating (bedstraw; [1]) | Bedstraw plant response rating (bedstraw; [2]) | Bedstraw plant response rating (bedstraw; [5]) | Bedstraw plant response rating (0 to 10 scale) (bedstraw; Preemergence, Rate 250 g/ha) | Bedstraw plant response rating (bedstraw; [6]) | Nutsedge plant response rating (purple nutsedge; [1]) | Nutsedge plant response rating (purple nutsedge; [2]) | Plant response rating, Nutsedge (purple nutsedge; [3]) | Nutsedge plant response rating (purple nutsedge; [4]) | Nutsedge plant response rating (purple nutsedge; [5]) | Nutsedge plant response rating (0 to 10 scale) (purple nutsedge; Preemergence, Rate 250 g/ha) | Plant response rating, Nutsedge (purple nutsedge; [7]) | Soybean plant response rating (soybean; [1]) | Soybean plant response rating (soybean; [4]) | Soybean plant response rating (soybean; [5]) | Blackgrass plant response rating (blackgrass; [1]) | Blackgrass plant response rating (blackgrass; [2]) | Blackgrass plant response rating (blackgrass; [4]) | Blackgrass plant response rating (blackgrass; [5]) | Blackgrass plant response rating (0 to 10 scale) (blackgrass; Preemergence, Rate 250 g/ha) | Plant response rating, Blackgrass (blackgrass; [7]) | Giant foxtail plant response rating (giant foxtail; [1]) | Giant foxtail plant response rating (giant foxtail; [2]) | Plant response rating, Giant foxtail (giant foxtail; [7]) | B. signalgrass plant response rating (surinam grass; [1]) | B. signalgrass plant response rating (surinam grass; [2]) | B. signalgrass plant response rating (surinam grass; [4]) | Velvetleaf plant response rating (velvetleaf; [1]) | Velvetleaf plant response rating (velvetleaf; [2]) | Velvetleaf plant response rating (velvetleaf; [4]) | Velvetleaf plant response rating (velvetleaf; [5]) | Velvetleaf plant response rating (0 to 10 scale) (velvetleaf; Preemergence, Rate 250 g/ha) | Velvetleaf plant response rating (velvetleaf; [6]) | Plant response rating, Velvetleaf (velvetleaf; [7])
7: Plant response rating, Crabgrass (crabgrass; [3]) | Redroot pigweed plant response rating (pigweed; [4]) | Redroot pigweed plant response rating (pigweed; [5]) | Plant response rating, Morningglory (morningglory; [3])
1: Plant response rating, Cocklebur (cocklebur; [3]) | Morningglory plant response rating (morningglory; [1])
6: Crabgrass plant response rating (0 to 10 scale) (crabgrass; Preemergence, Rate 250 g/ha) | Sugarbeets plant response rating (0 to 10 scale) (sugar beet; Preemergence, Rate 250 g/ha) | B. signalgrass plant response rating (surinam grass; [6])
3: Plant response rating, Crabgrass (crabgrass; [7]) | Plant response rating, Wild oats (wild oat; [3]) | Plant response rating, Sugarbeets (sugar beet; [3]) | Plant response rating, Giant foxtail (giant foxtail; [3]) | Giant foxtail plant response rating (giant foxtail; [4]) | Giant foxtail plant response rating (giant foxtail; [5]) | Plant response rating, B. signalgrass (surinam grass; [3]) | Plant response rating, B. signalgrass (surinam grass; [7]) | Plant response rating, Velvetleaf (velvetleaf; [3])
8: Nutsedge plant response rating (purple nutsedge; [6])
4: Crabgrass plant response rating (crabgrass; [4]) | Crabgrass plant response rating (crabgrass; [5]) | Sugarbeets plant response rating (sugar beet; [4]) | Plant response rating, Morningglory (morningglory; [7]) | B. signalgrass plant response rating (surinam grass; [5]) | B. signalgrass plant response rating (0 to 10 scale, 0 is no effect, 10 is complete control) (surinam grass; Preemergence, Rate 250 g/ha)
5: Sugarbeets plant response rating (sugar beet; [5])
9: Redroot pigweed plant response rating (0 to 10 scale) (pigweed; Preemergence, Rate 250 g/ha) | Giant foxtail plant response rating (0 to 10 scale) (giant foxtail; Preemergence, Rate 250 g/ha) | Giant foxtail plant response rating (giant foxtail; [6])
